Values quoted from earlier work, collected in article PMC11054727 (Viruses, 2024).
Read-outs that look alike come from different tables or passages of the source.

Tests used:
SARS-CoV-2 pseudovirus = tested on: SARS-CoV-2 pseudovirus; design: method as in ref 48 = [48]; conditions: read-out: EC50 pseudovirus entry; cited from earlier work
SARS-CoV-2 [1] = conditions: cited from earlier work
SARS-CoV-2 [2] = tested on: SARS-CoV-2; design: method as in ref 23; conditions: Table S1, experimental antiviral activity; read-out: Observed EC50; cited from earlier work
hCoV-OC43 = tested on: hCoV-OC43; design: method as in ref 2 = [2]; conditions: read-out: EC50 hCoV-OC43 infections; cited from earlier work
[3] = tested on: Nsp5 Main protease (Mpro); conditions: cited from earlier work
SARS-CoV-2 [4] = conditions: cited from earlier work; remark: listed apart in the source
SARS-CoV-2 Spike = conditions: read-out: Spike-mediated fusion activity EC50; cited from earlier work
[5] = experimental CPE data, read-out: EC50 CPE

For `CN(C)CCOc1ccc(/C(=C(/CCCl)c2ccccc2)c2ccccc2)cc1` [compound 3, Toremifene], the EC50 (SARS-CoV-2 pseudovirus) is listed as 1.92 µM and the EC50 (SARS-CoV-2 [1]; read-out: EC50 live SARS-CoV-2 infections) is listed as 3.58 µM.
For `CC(C)N=c1cc2n(-c3ccc(F)cc3)c3ccccc3nc-2cc1Nc1ccc(Cl)cc1` [15a], the EC50 (SARS-CoV-2 [2]) is listed as 29.6 µM.
In the case of `COc1ccc(-n2c3cc(=NC4CC4)c(Nc4ccc(F)cc4)cc-3nc3ccccc32)cc1` [15h], the EC50 (SARS-CoV-2 [2]) is listed as 33.1 µM.
For `CC(C)/N=c1\cc2n(-c3ccc(Cl)cc3)c3ccccc3nc-2cc1Nc1ccc(Cl)cc1` [compound 2, Clofazimine], the EC50 (hCoV-OC43) is given as 0.35 µM, the “Nsp5 Main protease (Mpro) activity” value [3] is given as “zero activity” and the EC50 (SARS-CoV-2 [4]; read-out: consensus EC50 antiviral activity) is given as 0.31 µM. For the same compound, the EC50 (SARS-CoV-2 Spike) was 2.56 µM, the “extent of inhibition in infection assays” value (SARS-CoV-2 [1]; Vero E6, Huh7, and Caco-2 cells) was “full inhibitor” and the EC50 (SARS-CoV-2 [1]; same study as hCoV-OC43, read-out: EC50 SARS-CoV-2 infections) was 0.01 µM.
In the case of `C=C[C@@]1(C)CC(=O)[C@]2(O)[C@@]3(C)[C@@H](O)CCC(C)(C)[C@@H]3[C@H](OC(=O)CCN(C)C)[C@H](OC(C)=O)[C@@]2(C)O1.Cl` [NKH477], the “extent of inhibition in CPE assays” value (SARS-CoV-2 [4]; Vero E6 cells) is given as “partial inhibitors”.
For `COc1ccc(Nc2cc3nc4ccccc4n(-c4ccc(Cl)cc4)c-3cc2=NC(C)C)cc1` [7g], the EC50 (SARS-CoV-2 [2]) is given as 16.6 µM.
In the case of `CC(C)N=c1cc2n(-c3ccc(Cl)cc3)c3ccccc3nc-2cc1Nc1ccc(OC(F)(F)F)cc1` [7i], the EC50 (SARS-CoV-2 [2]) is given as 10 µM.
For `CC(C)N=c1cc2n(-c3ccc(Cl)cc3)c3ccccc3nc-2cc1Nc1ccccc1` [7c], the EC50 (SARS-CoV-2 [2]) is listed as 40.9 µM.
For `CCC(CC)COC(=O)[C@H](C)N[P@](=O)(OC[C@H]1O[C@@](C#N)(c2ccc3c(N)ncnn23)[C@H](O)[C@@H]1O)Oc1ccccc1` [Remdesivir], the “extent of inhibition in CPE assays” value (SARS-CoV-2 [4]) is given as “full inhibitors”.
For `CC(C)N=c1cc2n(-c3ccc(Cl)cc3)c3ccccc3nc-2cc1NCc1ccc(Cl)cc1` [7k], the EC50 (SARS-CoV-2 [2]) is listed as 12.4 µM.
In the case of `COc1ccc(Nc2cc3nc4ccccc4n(-c4ccc(Cl)cc4)c-3cc2=N)cc1` [6d], the EC50 (SARS-CoV-2 [2]) is listed as 154 µM.
For `CCOC(=O)c1c(CSc2ccccc2)n(C)c2cc(Br)c(O)c(CN(C)C)c12` [compound 1, Arbidol], the “extent of inhibition in CPE assays” value (SARS-CoV-2 [4]) is listed as “partial inhibitor”, the EC50 (SARS-CoV-2 [4]; [5]) is listed as 5.6 µM and the EC50 (SARS-CoV-2 [2]) is listed as 10 µM.
In the case of `Clc1ccc(Nc2cc3nc4ccccc4n(-c4ccc(Cl)cc4)c-3cc2=NC2CC2)cc1` [7a], the EC50 (SARS-CoV-2 [2]) is listed as 141 µM.
For `COc1ccc(Nc2cc3nc4ccccc4n(-c4ccc(Cl)cc4)c-3cc2=N)c(OC)c1` [6e], the EC50 (SARS-CoV-2 [2]) is listed as 16.1 µM.
In the case of `CC(C)N=c1cc2n(-c3ccc(F)cc3)c3ccccc3nc-2cc1Nc1ccc(F)cc1` [15b], the EC50 (SARS-CoV-2 [2]) is listed as 81.1 µM.
For `COc1ccc(-n2c3cc(=NC(C)C)c(Nc4ccc(F)cc4)cc-3nc3ccccc32)cc1` [15g], the EC50 (SARS-CoV-2 [2]) is listed as 10 µM.
In the case of `CCOC(=O)c1c(CS(=O)(=O)c2ccc(Cl)cc2)n(C)c2cc(Br)c(O)c(CN(C)C)c12` [1b], the EC50 (SARS-CoV-2 [4]; [5]) is given as 29.5 µM.
In the case of `CC(CN(C)C)CN1c2ccccc2CCc2ccccc21` (stereo not drawn) [trimipramine], the “extent of inhibition in CPE assays” value (SARS-CoV-2 [4]; Vero E6 cells) is given as “partial inhibitors”.
In the case of `COc1ccc(-n2c3cc(=NC(C)C)c(Nc4cccc(F)c4)cc-3nc3ccccc32)cc1` [15f], the EC50 (SARS-CoV-2 [2]) is given as 14.6 µM.
